From patent US10730872B2, “Pesticidally active heterocyclic derivatives with sulphur containing sustitutents” (SYNGENTA PARTICIPATIONS AG, priority 2015, dated 2020)

Columns and labels:
Type in all cases: in vivo
Tetranychus urticae = Tetranychus urticae (Two-Spotted Spider Mite): Feeding/Contact Activity; conditions: foliar, 192 h, application rate of 200 ppm, sprayed bean leaf discs, mixed population (mobile stages), 8 days after infestation
Protocol: Bean leaf discs on agar in 24-well microtiter plates were sprayed with aqueous test solutions prepared from 10,000 ppm DMSO stock solutions. After drying the leaf discs were infested with a mite population of mixed ages. The samples were assessed for mortality on mixed population (mobile stages) 8 days after infestation.

Diabrotica balteata = Diabrotica balteata (Corn Root Worm); conditions: 96 h, application rate of 200 ppm, sprayed maize sprouts, L2 larvae, 4 days after infestation, read-out: effect in at least one of the two categories (mortality or growth inhibition)
Protocol: Maize sprouts placed onto an agar layer in 24-well microtiter plates were treated with aqueous test solutions prepared from 10,000 ppm DMSO stock solutions by spraying. After drying, the plates were infested with L2 larvae (6 to 10 per well). The samples were assessed for mortality and growth inhibition in comparison to untreated samples 4 days after infestation.

Myzus persicae [1] = assay: Myzus persicae (Green Peach Aphid): Feeding/Contact Activity; conditions: foliar, 144 h, application rate of 200 ppm, sprayed sunflower leaf discs, aphid population of mixed ages, 6 days after infestation
Protocol: Sunflower leaf discs were placed onto agar in a 24-well microtiter plate and sprayed with aqueous test solutions prepared from 10,000 ppm DMSO stock solutions. After drying, the leaf discs were infested with an aphid population of mixed ages. The samples were assessed for mortality 6 days after infestation.

Plutella xylostella = Plutella xylostella (Diamond Back Moth); conditions: 120 h, application rate of 200 ppm, artificial diet, L2 larvae, 5 days after infestation, read-out: effect in at least one of the two categories (mortality or growth inhibition)
Protocol: 24-well microtiter plates with artificial diet were treated with aqueous test solutions prepared from 10,000 ppm DMSO stock solutions by pipetting. After drying, the plates were infested with L2 larvae (10 to 15 per well). The samples were assessed for mortality and growth inhibition in comparison to untreated samples 5 days after infestation.

Spodoptera littoralis [2] = assay: Spodoptera littoralis (Egyptian Cotton Leaf Worm), sprayed cotton leaf discs; conditions: foliar, 72 h, application rate of 200 ppm, L1 larvae, 3 days after infestation
Protocol: Cotton leaf discs were placed onto agar in 24-well microtiter plates and sprayed with aqueous test solutions prepared from 10,000 ppm DMSO stock solutions. After drying the leaf discs were infested with five L1 larvae. The samples were assessed for mortality, anti-feeding effect, and growth inhibition in comparison to untreated samples 3 days after infestation. Control of Spodoptera littoralis by a test sample is given when at least one of the categories mortality, anti-feedant effect, and growth inhibition is higher than the untreated sample.

Aedes aegypti = assay: Aedes Aegypti (Yellow Fever Mosquito); conditions: 200 ppm in ethanol, dry deposit in 12 well plates, adult females, after 48 h and/or 24 h
Protocol: Test solutions, at an application rate of 200 ppm in ethanol, were applied to 12 well tissue culture plates. Once the deposits were dry, five, two to five day old adult female Aedes aegypti were added to each well, and sustained with a 10% sucrose solution in a cotton wool plug. Assessment of knockdown was made one hour after introduction, and mortality was assessed at 24 and 48 hours after introduction.

Bemisia tabaci = Bemisia tabaci (Cotton White Fly): Feeding/Contact Activity; conditions: foliar, 144 h, application rate of 200 ppm, sprayed cotton leaf discs, adult white flies, 6 days after incubation
Protocol: Cotton leaf discs were placed on agar in 24-well microtiter plates and sprayed with aqueous test solutions prepared from 10,000 ppm DMSO stock solutions. After drying the leaf discs were infested with adult white flies. The samples were checked for mortality 6 days after incubation.

Euschistus heros = Euschistus heros (Neotropical Brown Stink Bug); conditions: 120 h, application rate of 200 ppm, sprayed soybean leaves, N2 nymphs, 5 days after infestation, read-out: effect in at least one of the two categories (mortality or growth inhibition)
Protocol: Soybean leaves on agar in 24-well microtiter plates were sprayed with aqueous test solutions prepared from 10,000 ppm DMSO stock solutions. After drying the leaves were infested with N2 nymphs. The samples were assessed for mortality and growth inhibition in comparison to untreated samples 5 days after infestation.

Myzus persicae [3] = assay: Myzus persicae (Green Peach Aphid). Systemic Activity; conditions: 144 h, test rate of 24 ppm, roots of infested pea seedlings in test solution, 6 days
Protocol: Roots of pea seedlings infested with an aphid population of mixed ages were placed directly into aqueous test solutions prepared from 10,000 DMSO stock solutions. The samples were assessed for mortality 6 days after placing seedlings into test solutions.

Spodoptera littoralis [4] = assay: Spodoptera littoralis (Egyptian Cotton Leaf Worm), uptake by lettuce roots from agar; conditions: 144 h, test rate of 12.5 ppm, mixed with agar, absorbed by lettuce roots, Spodoptera eggs, 6 days after infestation, read-out: effect in at least one of the three categories (mortality, anti-feeding, or growth inhibition)
From the text: Test compounds were applied by pipette from 10,000 ppm DMSO stock solutions into 24-well plates and mixed with agar. Lettuce seeds were placed onto the agar and the multi well plate was closed by another plate which contained also agar. After 7 days the compound was absorbed by the roots and the lettuce grew into the lid plate. The lettuce leaves were then cut off into the lid plate. Spodoptera eggs were pipetted through a plastic stencil onto a humid gel blotting paper and the lid plate was closed with it. The samples were assessed for mortality, anti-feedant effect and growth inhibition in comparison to untreated samples 6 days after infestation.

CCn1c(C(F)(F)F)cc2nc(-c3nc(C(=O)O)ccc3S(=O)(=O)CC)n(C)c2c1=O [Compound A4, 6-[5-ethyl-3-methyl-4-oxo-6-(trifluoromethyl)imidazo[4,5-c]pyridin-2-yl]-5-ethylsulfonyl-pyridine-2-carboxylic acid]
≥ 80%: mortality at 200 ppm (Tetranychus urticae)

CCn1c(C(F)(F)F)cc2nc(-c3ncc(N)cc3S(=O)(=O)CC)n(C)c2c1=O [Compound A5, 2-(5-amino-3-ethylsulfonyl-2-pyridyl)-5-ethyl-3-methyl-6-(trifluoromethyl)imidazo[4,5-c]pyridin-4-one]
≥ 80%: effect mortality or growth inhibition at 200 ppm (Diabrotica balteata) | mortality at 200 ppm (Myzus persicae [1]) | percent effect (mortality or growth inhibition) at 200 ppm (Plutella xylostella) | percent control (mortality, anti-feeding effect or growth inhibition) at 200 ppm (Spodoptera littoralis [2]) | pest or weed control at 200 ppm (Aedes aegypti)

CCn1c(C(F)(F)F)cc2nc(-c3nc(N(C)C4CC4)ccc3S(=O)(=O)CC)n(C)c2c1=O [Compound A12, 2-[6-[cyclopropyl(methyl)amino]-3-ethylsulfonyl-2-pyridyl]-5-ethyl-3-methyl-6-(trifluoromethyl)imidazo[4,5-c]pyridin-4-one]
≥ 80%: mortality at 200 ppm (Bemisia tabaci) | effect mortality or growth inhibition at 200 ppm (Diabrotica balteata) | percent effect (mortality or growth inhibition) at 200 ppm (Euschistus heros) | mortality at 200 ppm (Myzus persicae [1]) | percent effect (mortality or growth inhibition) at 200 ppm (Plutella xylostella) | percent control (mortality, anti-feeding effect or growth inhibition) at 200 ppm (Spodoptera littoralis [2]) | pest or weed control at 200 ppm (Aedes aegypti)

CCn1c(C(F)(F)F)cc2nc(-c3ncc(N(C)S(C)(=O)=O)cc3S(=O)(=O)CC)n(C)c2c1=O [Compound A13, N-[6-[5-ethyl-3-methyl-4-oxo-6-(trifluoromethyl)imidazo[4,5-c]pyridin-2-yl]-5-ethylsulfonyl-3-pyridyl]-N-methyl-methanesulfonamide]
≥ 80%: percent effect (mortality or growth inhibition) at 200 ppm (Euschistus heros) | mortality at 200 ppm (Myzus persicae [1]) | percent effect (mortality or growth inhibition) at 200 ppm (Plutella xylostella) | percent control (mortality, anti-feeding effect or growth inhibition) at 200 ppm (Spodoptera littoralis [2]) | mortality at 200 ppm (Tetranychus urticae)

CCn1c(C(F)(F)F)cc2nc(-c3ncc(C(=O)NC4CC4)cc3S(=O)(=O)CC)n(C)c2c1=O [Compound A19, N-cyclopropyl-6-[5-ethyl-3-methyl-4-oxo-6-(trifluoromethyl)imidazo[4,5-c]pyridin-2-yl]-5-ethylsulfonyl-pyridine-3-carboxamide]
≥ 80%: percent effect (mortality or growth inhibition) at 200 ppm (Euschistus heros) | mortality at 24 ppm (Myzus persicae [3]) | percent effect (mortality or growth inhibition) at 200 ppm (Plutella xylostella) | mortality at 200 ppm (Tetranychus urticae)

CCn1c(C(F)(F)F)cc2nc(-c3ncc(NC4(C#N)CC4)cc3S(=O)(=O)CC)n(C)c2c1=O [Compound A24, 1-[[6-[5-ethyl-3-methyl-4-oxo-6-(trifluoromethyl)imidazo[4,5-c]pyridin-2-yl]-5-ethylsulfonyl-3-pyridyl]amino]cyclopropanecarbonitrile]
≥ 80%: effect mortality or growth inhibition at 200 ppm (Diabrotica balteata) | percent effect (mortality or growth inhibition) at 200 ppm (Euschistus heros) | percent effect (mortality or growth inhibition) at 200 ppm (Plutella xylostella) | percent control (mortality, anti-feeding effect or growth inhibition) at 200 ppm (Spodoptera littoralis [2]) | mortality at 200 ppm (Tetranychus urticae)

CCn1c(C(F)(F)F)cc2nc(-c3nc(N(CC(F)(F)F)C(=O)C4CC4)ccc3S(=O)(=O)CC)n(C)c2c1=O [Compound A32, N-[6-[5-ethyl-3-methyl-4-oxo-6-(trifluoromethyl)imidazo[4,5-c]pyridin-2-yl]-5-ethylsulfonyl-2-pyridyl]-N-(2,2,2-trifluoroethyl)cyclopropanecarboxamide]
≥ 80%: effect mortality or growth inhibition at 200 ppm (Diabrotica balteata) | percent effect (mortality or growth inhibition) at 200 ppm (Plutella xylostella) | percent control (mortality, anti-feeding effect or growth inhibition) at 200 ppm (Spodoptera littoralis [2]) | mortality at 200 ppm (Tetranychus urticae)

CCn1c(C(F)(F)F)cc2nc(-c3nc(NCC(F)(F)F)ccc3S(=O)(=O)CC)n(C)c2c1=O [Compound A34, 5-ethyl-2-[3-ethylsulfonyl-6-(2,2,2-trifluoroethylamino)-2-pyridyl]-3-methyl-6-(trifluoromethyl)imidazo[4,5-c]pyridin-4-one]
≥ 80%: effect mortality or growth inhibition at 200 ppm (Diabrotica balteata) | percent effect (mortality or growth inhibition) at 200 ppm (Plutella xylostella) | percent control (mortality, anti-feeding effect or growth inhibition) at 200 ppm (Spodoptera littoralis [2]) | mortality at 200 ppm (Tetranychus urticae)

CCn1c(C(F)(F)F)cc2nc(-c3nc(N)c(Cl)cc3S(=O)(=O)CC)n(C)c2c1=O [Compound A38, 2-(6-amino-5-chloro-3-ethylsulfonyl-2-pyridyl)-5-ethyl-3-methyl-6-(trifluoromethyl)imidazo[4,5-c]pyridin-4-one]
≥ 80%: mortality at 200 ppm (Bemisia tabaci) | effect mortality or growth inhibition at 200 ppm (Diabrotica balteata) | percent effect (mortality or growth inhibition) at 200 ppm (Euschistus heros) | mortality at 200 ppm (Myzus persicae [1]) | percent effect (mortality or growth inhibition) at 200 ppm (Plutella xylostella) | percent control (mortality, anti-feeding effect or growth inhibition) at 200 ppm (Spodoptera littoralis [2]) | percent effect (mortality, anti-feeding or growth inhibition) at 12.5 ppm (Spodoptera littoralis [4]) | pest or weed control at 200 ppm (Aedes aegypti)

CCS(=O)(=O)c1ccc(N)nc1-c1nc2cc(C(F)(F)F)n(C3CC3)c(=O)c2n1C [Compound A42, 2-(6-amino-3-ethylsulfonyl-2-pyridyl)-5-cyclopropyl-3-methyl-6-(trifluoromethyl)imidazo[4,5-c]pyridin-4-one]
≥ 80%: mortality at 200 ppm (Bemisia tabaci) | effect mortality or growth inhibition at 200 ppm (Diabrotica balteata) | percent effect (mortality or growth inhibition) at 200 ppm (Euschistus heros) | mortality at 200 ppm (Myzus persicae [1]) | mortality at 24 ppm (Myzus persicae [3]) | percent effect (mortality or growth inhibition) at 200 ppm (Plutella xylostella) | percent control (mortality, anti-feeding effect or growth inhibition) at 200 ppm (Spodoptera littoralis [2]) | percent effect (mortality, anti-feeding or growth inhibition) at 12.5 ppm (Spodoptera littoralis [4]) | mortality at 200 ppm (Tetranychus urticae)

CCn1c(C(F)(F)F)cc2nc(-c3ncc(NC(=O)OC(C)(C)C)cc3S(=O)(=O)CC)n(C)c2c1=O [Compound A64, tert-butyl N-[6-[5-ethyl-3-methyl-4-oxo-6-(trifluoromethyl)imidazo[4,5-c]pyridin-2-yl]-5-ethylsulfonyl-3-pyridyl]carbamate]
≥ 80%: mortality at 200 ppm (Bemisia tabaci) | percent effect (mortality or growth inhibition) at 200 ppm (Euschistus heros) | percent effect (mortality or growth inhibition) at 200 ppm (Plutella xylostella) | percent control (mortality, anti-feeding effect or growth inhibition) at 200 ppm (Spodoptera littoralis [2]) | mortality at 200 ppm (Tetranychus urticae)

CCn1c(C(F)(F)F)cc2nc(-c3nc(NC(=O)OC(C)(C)C)ccc3S(=O)(=O)CC)n(C)c2c1=O [Compound A66, tert-butyl N-[6-[5-ethyl-3-methyl-4-oxo-6-(trifluoromethyl)imidazo[4,5-c]pyridin-2-yl]-5-ethylsulfonyl-2-pyridyl]carbamate]
≥ 80%: mortality at 200 ppm (Bemisia tabaci) | effect mortality or growth inhibition at 200 ppm (Diabrotica balteata) | percent effect (mortality or growth inhibition) at 200 ppm (Plutella xylostella) | percent control (mortality, anti-feeding effect or growth inhibition) at 200 ppm (Spodoptera littoralis [2]) | percent effect (mortality, anti-feeding or growth inhibition) at 12.5 ppm (Spodoptera littoralis [4]) | mortality at 200 ppm (Tetranychus urticae)

CCn1c(C(F)(F)F)cc2nc(-c3nc(N)c(C4CC4)cc3S(=O)(=O)CC)n(C)c2c1=O [Compound A71]
≥ 80%: mortality at 200 ppm (Bemisia tabaci) | effect mortality or growth inhibition at 200 ppm (Diabrotica balteata) | percent effect (mortality or growth inhibition) at 200 ppm (Euschistus heros) | mortality at 200 ppm (Myzus persicae [1]) | mortality at 24 ppm (Myzus persicae [3]) | percent effect (mortality or growth inhibition) at 200 ppm (Plutella xylostella) | percent control (mortality, anti-feeding effect or growth inhibition) at 200 ppm (Spodoptera littoralis [2]) | mortality at 200 ppm (Tetranychus urticae)
